Measured values from ChEMBL document CHEMBL1135075, “Synthesis and biological evaluation of imidazol-2-one and 2-cyanoiminoimidazole derivatives: novel series of PDE4 inhibitors” (Bioorg Med Chem Lett, 2002).

What was measured:
Rattus norvegicus = test: Tested in vivo for lowest active dose that induced inhibitory effect on gastric emptying in rats; type: functional, Stomach
[1] = target: 3',5'-cyclic-AMP phosphodiesterase 4B (Homo sapiens, UniProt Q07343); test: Inhibitory activity against recombinant phosphodiesterase 4B (PDE4B) of human mononuclear lymphocytes
Chain of 3',5'-cyclic-AMP phosphodiesterase 4B (Q07343 whole entry): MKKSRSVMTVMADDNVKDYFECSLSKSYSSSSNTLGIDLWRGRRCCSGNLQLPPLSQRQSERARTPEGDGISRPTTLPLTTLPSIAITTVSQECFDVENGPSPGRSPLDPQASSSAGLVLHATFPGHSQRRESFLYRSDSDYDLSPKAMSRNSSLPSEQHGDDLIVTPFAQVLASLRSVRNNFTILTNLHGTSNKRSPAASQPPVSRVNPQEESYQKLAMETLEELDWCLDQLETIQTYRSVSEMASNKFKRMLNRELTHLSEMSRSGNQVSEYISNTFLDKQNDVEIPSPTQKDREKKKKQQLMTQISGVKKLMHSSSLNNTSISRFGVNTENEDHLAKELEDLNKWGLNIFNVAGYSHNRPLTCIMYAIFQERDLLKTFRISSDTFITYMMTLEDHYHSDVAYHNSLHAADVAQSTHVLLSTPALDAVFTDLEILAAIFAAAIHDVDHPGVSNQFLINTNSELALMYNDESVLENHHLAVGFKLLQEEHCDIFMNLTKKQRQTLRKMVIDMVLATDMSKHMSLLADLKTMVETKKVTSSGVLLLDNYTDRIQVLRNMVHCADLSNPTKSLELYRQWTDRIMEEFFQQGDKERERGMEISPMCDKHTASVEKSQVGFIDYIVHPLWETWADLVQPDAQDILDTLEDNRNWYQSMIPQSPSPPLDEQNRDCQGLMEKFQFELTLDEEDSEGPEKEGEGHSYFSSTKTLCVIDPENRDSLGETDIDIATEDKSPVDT

Mus musculus [2] = test: Evaluated for antiinflammatory activity in the TPA induced ear inflammation model at a dose 1 mg/kg (25 ug); type: functional
Mus musculus [3] = test: Evaluated for antiinflammatory activity in the TPA induced ear inflammation model at a dose 2 mg/kg (50 ug); type: functional
Phosphodiesterase 4 = Phosphodiesterase 4 (Rattus norvegicus, UniProt P14270+P14646+P14644+P54748); test: Displacement of [3H]rolipram from rat forebrain membrane; type: tissue-based, Brain

Row | Compound | LAD (Rattus norvegicus) | IC50 [1] | inhibition in vivo at 1 mg/kg (Mus musculus [2]) | inhibition in vivo at 2 mg/kg (Mus musculus [3]) | Ki (Phosphodiesterase 4)
1 | COc1ccc(C(C)(C)Cn2ccnc2O)cc1OC1CCCC1 | 0.63 mg/kg | 367 nM |  |  | 
2 | CC(Cn1ccnc1O)c1ccc(OC(F)F)c(OC2CCCC2)c1 (centres undefined) | 0.02 mg/kg | < 10 nM |  |  | 
3 | COc1ccc(C2(Cn3ccnc3O)CC2)cc1OC1CCCC1 | 0.63 mg/kg | 341 nM | 18% | 66% | 
4 | COc1ccc(C(C)Cn2ccnc2O)cc1OC1CCCC1 (centres undefined) | 0.01 mg/kg | 24.1 nM |  |  | 
5 | COc1ccc(C(C)Cn2ccnc2NC#N)cc1OCCC1Cc2ccccc2C1 (centres undefined) | >1.25 mg/kg | 67.6 nM |  |  | 
6 | COc1ccc(C(C)Cn2ccnc2NC#N)cc1OC1CCCC1 (centres undefined) | 1.25 mg/kg |  | 50% | 84% | 
7 | CC(Cn1ccnc1NC#N)c1ccc(OC(F)F)c(OCC2CC2)c1 (centres undefined) | 0.08 mg/kg |  | 22% | 52% | 
8 | CC(Cn1ccnc1O)c1ccc(OC(F)(F)F)c(OC2CCCC2)c1 (centres undefined) | 1.25 mg/kg | > 1000 nM |  |  | 
9 | COc1ccc(C(C)Cn2ccnc2NC#N)cc1OC1CCOC1 (centres undefined) | >1.25 mg/kg |  | 38% | 71% | 
10 | COc1ccc(C(F)Cn2ccnc2O)cc1OC1Cc2ccccc2C1 (centres undefined) | 0.08 mg/kg | 24.3 nM |  |  | 
11 | COc1ccc(C(C)Cn2ccnc2O)cc1OC1CCOC1 (centres undefined) | 0.02 mg/kg |  |  |  | 
12 | CC(Cn1ccnc1NC#N)c1ccc(OC(F)F)c(OCCCCCc2ccccc2)c1 (centres undefined) | >1.25 mg/kg | 28.4 nM | 41% | 69% | 
13 | COc1ccc(C(C)Cn2ccnc2NC#N)cc1OCCCCCc1ccccc1 (centres undefined) | >1.25 mg/kg |  | 36% | 77% | 
14 | COc1ccc([C@H](C)Cn2ccnc2NC#N)cc1OC1Cc2ccccc2C1 | >5 mg/kg |  | 54% |  | 220 nM
15 | COc1ccc([C@@H](C)Cn2cc[nH]/c2=N\C#N)cc1OC1Cc2ccccc2C1 | 2.5 mg/kg |  | 56% |  | 63 nM
16 | COc1ccc(C(O)Cn2ccnc2O)cc1OC1Cc2ccccc2C1 (centres undefined) | 0.31 mg/kg | 399 nM |  |  | 
17 | COc1ccc(C(C)C(C)n2ccnc2O)cc1OC1CCCC1 (centres undefined) |  | 277 nM |  |  | 
18 | COc1ccc(CCn2ccnc2O)cc1OC1CCCC1 | 0.08 mg/kg | 110 nM | 32% | 81% | 
19 | COc1ccc(C(C)Cn2ccnc2NC#N)cc1OC1Cc2ccccc2C1 (centres undefined) | 2.5 mg/kg |  | 51% | 82% | 180 nM
20 | COc1ccc(C(C)Cn2ccnc2NC#N)cc1OCC1CC1 (centres undefined) | 1.25 mg/kg |  | 38% | 78% | 
21 | COc1ccc(C(C)Cn2ccnc2O)cc1OC1CC2CCC1C2 (centres undefined) | 0.01 mg/kg | 21 nM | 34% | 90% | 
22 | COc1ccc(C(C)(F)Cn2ccnc2O)cc1OC1CCOC1 (centres undefined) | 0.31 mg/kg | 327 nM |  |  | 
23 | COc1ccc(C(C)(O)Cn2ccnc2O)cc1OC1CCOC1 (centres undefined) | 0.31 mg/kg | > 1000 nM |  |  | 
24 | Oc1nccn1CC1(c2ccc(OC(F)F)c(OC3CCCC3)c2)CC1 | 0.08 mg/kg | 39.2 nM |  |  | 
25 | COc1ccc(C(=O)Cn2ccnc2O)cc1OC1CCCC1 | 1.25 mg/kg | 486 nM |  |  | 
26 | COc1ccc(C(=O)Nc2c(Cl)cncc2Cl)cc1OC1CCCC1 | 0.5 mg/kg |  | 43% | 69% | 
27 | COc1ccc(C(C)Cn2ccnc2O)cc1OCC1CC1 (centres undefined) | 0.01 mg/kg | 85.8 nM | 56% | 74% | 3.5 nM
28 | COc1ccc([C@]2(C#N)CC[C@@H](C(=O)O)CC2)cc1OC1CCCC1 [CILOMILAST] | 5 mg/kg |  | 69% | 88% | 
29 | COc1ccc(C2CNC(=O)C2)cc1OC1CCCC1 (centres undefined) [ROLIPRAM] | 0.04 mg/kg |  | 6% | 43% | 
